# Values quoted from earlier work in US20190209710A1, “[…] AND CHEWING GUM […] A […] FOR THE TASTE-BASED DETECTION OF VIRUSES” (Julius-Maximilians-Universitaet Wuerzburg, priority 2016, published 2019).
# Assays:
# [1] = test system: viral sialidases; details: literature: Beau et al., Eur. J. Biochem., 106 (1980) 531-540
# [2] = test system: bacterial sialidases; details: literature: Beau et al., Eur. J. Biochem., 106 (1980) 531-540
structure (smiles),measurement,setting,value
CO[C@H]1CC(O)(C(=O)O)O[C@@H]([C@H](O)[C@H](O)CO)[C@@H]1NC(C)=O (some centres unmarked) [4-methoxy-Neu5Ac],cleavage by viral sialidases,[1],very quickly
same,cleavage by bacterial sialidases,[2],not cut
